Reference: US9265741B2, “Molecules to perfect HbA1c levels” (Neville Pharmaceutical, Inc., priority 2011, dated 2016)

Key:
[1] = Safety test in human volunteers; format: in vivo; settings: clinically prescribed doses
Source text: Methyl pyruvate performs as a lipophilic antisense-like bullet that penetrates cell membranes, mitochondrial membranes and nuclear membranes with its active and passive delivery of energy via protons, adenosine triphosphate manufacture (ATP) and methylation. This energy delivering metabolic bullet upregulates all cytosolic and nuclear capabilities. It can even negate messenger RNA (mRNA) expression. Now, because of instant protons and pyruvate delivered, there is immediately empowered glycolysis and/or CAC production of ATP and the cell functions with more efficient performance. Through this newly available energy, gene silencing can be reversed, repairs completed, apoptosis performed, and the cell is upgraded and/or divides (cell partitioning) into a new and improved cell having shed its prior oxidative cellular/genetic debris. In DM this means improved Glut4 networking, improved insulin sensitivity, increased intra and intercellular networking and increased superoxide dismutase (SOD) production. Further, due to MP, many nutrients and complicit molecules including peroxisome proliferator-activator receptor (Ppars) will now function more effectively and efficiently, i.e. as infused and increased cellular energy can now affect niacinamide (B3) and nicotinamide adenine dinucleotide (NAD) at an intracellular level that enables and protects beta cell function. […]

HbA1c = test: Twelve patients with DM took MP for three months; HbA1c measured; format: in vivo, human
Source text: Twelve patients with DM, including a juvenile diabetic, took two (2) grams of MP in water two (2) times per day for three (3) months without any other lifestyle change. The average decrease of HbA1c was one percent (1%). (The group average HbA1c diminished from 7.5% to 6.5% during the course of three (3) months of treatment.)

[2] = tested on: pancreatic rat islet cells; test: MP instilled into pancreatic rat islet cells; insulin manufacture; format: cell-based; settings: pancreatic rat islet cells (animal model), several studies
Source text: The methyl pyruvate molecule and certain of these molecular analogues are lipophilic antisense-like permeants, each of which holds onto its own membrane penetrability as well as acting collectively to produce a timed release delivery within the inner mitochondria. The combinational synergy can be different than each effect individually. […] This up regulation is key for enhanced utilization and regulation of glucose transport. MP closes potassium channels and opens calcium channels (via aquaporin generation) allowing a more favorable cellular milieu (increases cytosolic pH) that increases CAC productivity via our delivered MP (as pyruvate), as well as the now utilizable glucose. The use of MP and/or EP as energy molecules allows gene silenced and disabled near-apoptotic cells to proceed logically/genomically to a more idealized homeostatic state for the organism. The invention represents a method for genomic self-regulation of HbA1c.
MP instilled into pancreatic rat islet cells enable upregulation of insulin manufacture six-fold in several studies. The measured Jurkat current is countered and neutralized by MP's proton impedance enhancing its later provocation in increased insulin manufacture.

| SMILES | safety in human volunteers [1] | average decrease of HbA1c (HbA1c; 2 grams of MP in water 2 times per day for 3 months, no other lifestyle change) | group average HbA1c after treatment (HbA1c; after 3 months of 2 grams of MP in water 2 times per day) | group average HbA1c before treatment (HbA1c; start of treatment (baseline)) | upregulation of insulin manufacture [2] |
| --- | --- | --- | --- | --- | --- |
| CCOC(=O)C(C)=O [EP, ethyl pyruvate] | safe |  |  |  |  |
| COC(=O)C(C)=O [MP, methyl pyruvate] | safe | 1% | 6.5% | 7.5% | six-fold |
